Assay results as given in patent publication US9981942B2, “Piperidine derivatives having multimodal activity against pain” (LABORATORIOS DEL DR. ESTEVE S.A., priority 2013, dated 2018).

Target: σ1 receptor and the μ-opiod receptor
Test: μ and σ1 dual binding: combined class from the Ki of both radioligand assays
Parameters: species or system human; key to μ and σ1 dual binding: +: Both Ki-μ and Ki-σ1>=500 nM; ++: One Ki<500 nM while the other Ki is >=500 nM; +++: Both Ki-μ and Ki-σ1<500 nM; ++++: Both Ki-μ and Ki-σ1<100 nM
Conditions: transfected HEK-293 membranes (σ1), transfected CHO-K1 cell membranes (μ); for μ and σ1 dual binding: combined class for Ki-μ and Ki-σ1
Outline: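 Classes combine both Ki values, split at 500 nM and 100 nM. Human μ-opioid binding used 1 nM [3H]-DAMGO on CHO-K1 membranes (27 °C, 60 min, pH 7.4, naloxone 10 μM for NSB); human σ1 used 5 nM [3H](+)-pentazocine on HEK-293 membranes (37 °C, 120 min, pH 8, haloperidol 10 μM for NSB).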

Compound | Ki range for both μ and σ1 (dual-binding class) [nM] | μ and σ1 dual binding
Oc1cccc(C2CCN(Cc3cn(-c4ccc(F)cn4)nn3)CC2)c1 [Example 143, 3-(1-((1-(5-fluoropyridin-2-yl)-1H-1,2,3-triazol-4-yl)methyl)piperidin-4-yl)phenol] | < 100 | –
Oc1cccc(C2CCN(Cc3cn(Cc4ncccc4Cl)nn3)CC2)c1 [Example 144, 3-(1-((1-((3-chloropyridin-2-yl)methyl)-1H-1,2,3-triazol-4-yl)methyl)piperidin-4-yl)phenol] | < 500 | –
Oc1cccc(C2CCN(Cc3cn(Cc4cccnc4)nn3)CC2)c1 [Example 145, 3-(1-((1-(pyridin-3-ylmethyl)-1H-1,2,3-triazol-4-yl)methyl)piperidin-4-yl)phenol] | < 500 | –
Oc1cccc(C2CCN(Cc3cn(-c4c(F)cccc4F)nn3)CC2)c1 [Example 146, 3-(1-((1-(2,6-difluorophenyl)-1H-1,2,3-triazol-4-yl)methyl)piperidin-4-yl)phenol] | < 100 | –
Oc1cccc(C2CCN(Cc3cn(-c4ccc(F)c(F)c4)nn3)CC2)c1 [Example 147, 3-(1-((1-(3,4-difluorophenyl)-1H-1,2,3-triazol-4-yl)methyl)piperidin-4-yl)phenol] | < 100 | –
Oc1cccc(C2CCN(Cc3cn(-c4ccc(Cl)cn4)nn3)CC2)c1 [Example 148, 3-(1-((1-(5-chloropyridin-2-yl)-1H-1,2,3-triazol-4-yl)methyl)piperidin-4-yl)phenol] | < 100 | –
Oc1cccc(C2CCN(Cc3cn(Cc4ncccc4C(F)(F)F)nn3)CC2)c1 [Example 151, 3-(1-((1-((3-(trifluoromethyl)pyridin-2-yl)methyl)-1H-1,2,3-triazol-4-yl)methyl)piperidin-4-yl)phenol] | < 500 | –
Oc1cccc(C2CCN(Cc3cn(Cc4ccc(C(F)(F)F)cn4)nn3)CC2)c1 [Example 152] | < 100 | –
Oc1cccc(C2CCN(Cc3cn(Cc4ccc(Cl)cn4)nn3)CC2)c1 [Example 153, 3-(1-((1-((5-chloropyridin-2-yl)methyl)-1H-1,2,3-triazol-4-yl)methyl)piperidin-4-yl)phenol] | < 100 | –
Oc1cccc(C2CCN(Cc3cn(-c4ncccc4F)nn3)CC2)c1 [Example 154, 3-(1-((1-(3-fluoropyridin-2-yl)-1H-1,2,3-triazol-4-yl)methyl)piperidin-4-yl)phenol] | < 500 | –
Oc1cccc(C2CCN(Cc3cn(-c4ccc(F)cc4F)nn3)CC2)c1 [Example 155, 3-(1-((1-(2,4-difluorophenyl)-1H-1,2,3-triazol-4-yl)methyl)piperidin-4-yl)phenol] | < 100 | –
Oc1cccc(C2CCN(Cc3cn(Cc4ncccc4O)nn3)CC2)c1 [Example 156, 2-((4-((4-(3-hydroxyphenyl)piperidin-1-yl)methyl)-1H-1,2,3-triazol-1-yl)methyl)pyridin-3-ol] | – | ++
Oc1cccc(C2CCN(Cc3cn(-c4cc(C(F)(F)F)ccn4)nn3)CC2)c1 [Example 157, 3-(1-((1-(4-(trifluoromethyl)pyridin-2-yl)-1H-1,2,3-triazol-4-yl)methyl)piperidin-4-yl)phenol] | < 500 | –
COc1cccnc1Cn1cc(CN2CCC(c3cccc(O)c3)CC2)nn1 [Example 158, 3-(1-((1-((3-methoxypyridin-2-yl)methyl)-1H-1,2,3-triazol-4-yl)methyl)piperidin-4-yl)phenol] | – | ++
Oc1ccc(Cn2cc(CN3CCC(c4cccc(O)c4)CC3)nn2)nc1 [Example 159, 6-((4-((4-(3-hydroxyphenyl)piperidin-1-yl)methyl)-1H-1,2,3-triazol-1-yl)methyl)pyridin-3-ol] | ≥ 500 | –
Oc1cccc(C2CCN(Cc3cn(Cc4cc(C(F)(F)F)ccn4)nn3)CC2)c1 [Example 160, 3-(1-((1-((4-(trifluoromethyl)pyridin-2-yl)methyl)-1H-1,2,3-triazol-4-yl)methyl)piperidin-4-yl)phenol] | < 100 | –
Oc1cccc(C2CCN(Cc3cn(-c4ncccc4Cl)nn3)CC2)c1 [Example 161, 3-(1-((1-(3-chloropyridin-2-yl)-1H-1,2,3-triazol-4-yl)methyl)piperidin-4-yl)phenol] | < 500 | –
Oc1cccc(C2CCN(CCc3cn(-c4ccccc4)nn3)CC2)c1 [Example 162, 3-(1-(2-(1-phenyl-1H-1,2,3-triazol-4-yl)ethyl)piperidin-4-yl)phenol] | < 100 | –
CS(=O)(=O)Nc1cccc(C2CCN(Cc3cnn(-c4ccccc4)c3)CC2)c1 [Example 163, N-(3-(1-((1-phenyl-1H-pyrazol-4-yl)methyl)piperidin-4-yl)phenyl)methanesulfonamide] | < 100 | –

Compound | Ki range for both μ and σ1 (dual-binding class) [nM] | μ and σ1 dual binding
Oc1cccc(C2CCN(Cc3cnn(-c4ccccc4)c3)CC2)c1 [Example 164, 3-(1-((1-phenyl-1H-pyrazol-4-yl)methyl)piperidin-4-yl)phenol] | < 100 | –
CS(=O)(=O)Nc1cccc([C@@H]2CCN(Cc3cnn(-c4ccccc4)c3)C[C@@H]2O)c1 [Example 165, N-(3-((3R,4S)-3-hydroxy-1-((1-phenyl-1H-pyrazol-4-yl)methyl)piperidin-4-yl)phenyl)methanesulfonamide] | < 500 | –
CS(=O)(=O)Nc1cccc(C2CCN(Cc3cnn([C@@H]4c5ccccc5C[C@H]4O)c3)CC2)c1 [Example 166, N-(3-(1-((1-((1R,2R)-2-hydroxy-2,3-dihydro-1H-inden-1-yl)-1H-pyrazol-4-yl)methyl)piperidin-4-yl)phenyl)methanesulfonamide] | – | ++
CC(C)S(=O)(=O)Nc1cccc(C2CCN(Cc3cnn(Cc4ccccn4)c3)CC2)c1 [Example 167, N-(3-(1-((1-(pyridin-2-ylmethyl)-1H-pyrazol-4-yl)methyl)piperidin-4-yl)phenyl)propane-2-sulfonamide] | < 500 | –
CC(C)S(=O)(=O)Nc1cccc([C@@H]2CCN(Cc3cnn(-c4ccccn4)c3)C[C@@H]2O)c1 [Example 169, N-(3-((3R,4S)-3-hydroxy-1-((1-(pyridin-2-yl)-1H-pyrazol-4-yl)methyl)piperidin-4-yl)phenyl)propane-2-sulfonamide] | – | ++
CC(C)S(=O)(=O)Nc1cccc(C2CCN(Cc3cnn(Cc4cccc(F)n4)c3)CC2)c1 [Example 170, N-(3-(1-((1-((6-fluoropyridin-2-yl)methyl)-1H-pyrazol-4-yl)methyl)piperidin-4-yl)phenyl)propane-2-sulfonamide] | < 100 | –
Oc1cccc(C2CCN(Cc3cnn(Cc4ccccn4)c3)CC2)c1 [Example 171, 3-(1-((1-(pyridin-2-ylmethyl)-1H-pyrazol-4-yl)methyl)piperidin-4-yl)phenol] | < 500 | –
Oc1cccc(C2CCN(Cc3cnn(Cc4ncccc4F)c3)CC2)c1 [Example 172, 3-(1-((1-((3-fluoropyridin-2-yl)methyl)-1H-pyrazol-4-yl)methyl)piperidin-4-yl)phenol] | < 500 | –
Oc1cccc(C2CCN(Cc3cnn(Cc4ccc(F)cn4)c3)CC2)c1 [Example 173, 3-(1-((1-((5-fluoropyridin-2-yl)methyl)-1H-pyrazol-4-yl)methyl)piperidin-4-yl)phenol] | < 500 | –
CS(=O)(=O)Nc1cccc(C2CCN(Cc3cc(-c4ccccc4)no3)CC2)c1 [Example 174, N-(3-(1-((3-phenylisoxazol-5-yl)methyl)piperidin-4-yl)phenyl)methanesulfonamide] | < 100 | –
CS(=O)(=O)Nc1cccc(C2CCN(Cc3nnc(-c4ccccc4)o3)CC2)c1 [Example 175, N-(3-(1-((5-phenyl-1,3,4-oxadiazol-2-yl)methyl)piperidin-4-yl)phenyl)methanesulfonamide] | – | ++
Oc1cccc(C2CCN(Cc3cc(-c4ccccc4)no3)CC2)c1 [Example 176, 3-(1-((3-phenylisoxazol-5-yl)methyl)piperidin-4-yl)phenol] | < 100 | –
Oc1cccc(C2CCN(Cc3cc(Cc4ccccc4)no3)CC2)c1 [Example 177, 3-(1-((3-benzylisoxazol-5-yl)methyl)piperidin-4-yl)phenol] | < 100 | –
CS(=O)(=O)Nc1cccc(C2CCN(Cc3cc(Cc4ccccc4)no3)CC2)c1 [Example 178, N-(3-(1-((3-benzylisoxazol-5-yl)methyl)piperidin-4-yl)phenyl)methanesulfonamide] | < 500 | –
CS(=O)(=O)Nc1ccc(F)c(C2CCN(Cc3cc(-c4ccccc4)no3)CC2)c1 [Example 179, N-(4-fluoro-3-(1-((3-phenylisoxazol-5-yl)methyl)piperidin-4-yl)phenyl)methanesulfonamide] | < 500 | –
CS(=O)(=O)Nc1cc(C2CCN(Cc3cc(-c4ccccc4)no3)CC2)ccc1F [Example 180, N-(2-fluoro-5-(1-((3-phenylisoxazol-5-yl)methyl)piperidin-4-yl)phenyl)methanesulfonamide] | < 500 | –
CC(C)S(=O)(=O)Nc1cccc(C2CCN(Cc3cc(-c4ccccn4)no3)CC2)c1 [Example 181, N-(3-(1-((3-(pyridin-2-yl)isoxazol-5-yl)methyl)piperidin-4-yl)phenyl)propane-2-sulfonamide] | – | ++
CS(=O)(=O)Nc1cccc(C2CCN(Cc3ncn(-c4ccccc4)n3)CC2)c1 [Example 182, N-(3-(1-((1-phenyl-1H-1,2,4-triazol-3-yl)methyl)piperidin-4-yl)phenyl)methanesulfonamide] | – | ++
